This note sets out measurements from US20260216141A1, “NECROSIS INHIBITOR” (LINKGEVITY LIMITED, priority 2023, published 2026).

In one test the test system is C. elegans. As to the kind of experiment: C. elegans survival after cold, heat, oxidative and toxin stress. The following applies: EGTA 2500 μM in liposomes, 3 hrs prior to stress or 3 hrs post stress. Format: in vivo, Caenorhabditis elegans. As for the experimental part:
C. elegans was maintained on nematode growth medium (NGM) agar plates seeded with Escherichia coli OP50, using standard culture methodologies (S. Brenner, 1974). A C. elegans (N2H) hermaphrodite stock was used as wild-type. Day 1 hermaphrodites were used in experiments and all maintenance and trials were conducted at 20° C. unless otherwise stated.
Per trial, 100 animals were placed in 1.5 ml Eppendorf tubes ([…]) containing 100 μl M9 buffer, and then transferred to a −80° C. incubator for 1.5 min. Following the stress, animals were transferred to a 20° C. incubator and maintained as usual on OP50 NGM plates. • Heat stress
Per trial, 100 animals were placed in a 37° C. incubator for 4.5 hrs on NGM plates. Following the stress, animals were transferred to a 20° C. incubator and maintained as usual on OP50 NGM plates. • Oxidative stress
Per trial, 100 animals were transferred into 1.5 ml Eppendorf tubes (20 animals per tube) containing 300 μL of 2M hydrogen peroxide for 5 min. Following the stress, animals were transferred to a 20° C. incubator and maintained as usual on OP50 NGM plates. • Toxin stress
Per trial, 100 animals were transferred into 1.5 ml Eppendorf tubes (20 animals per tube) containing 300 μL of 1.3% (v/v) tert-butylhydroperoxide (tBOOH) for 5 min. […]
Next the model Caenorhabditis elegans was used and animal survival following stress was scored. […]

Test [1] concerns HEK293 suspension culture. As to the kind of experiment: HEK293 suspension culture oxidative stress, PI/DAPI staining. Format: cell-based, human. The following applies: 2500 μM EGTA 2 hrs prior and during stress, 20 sec 1M H2O2. The protocol:
HEK293 cells were detached using trypsin, washed and placed in cell culture medium. Cells were pre-treated for 2 hrs before and during stress with or without (control) EGTA 2500 μM. Cells were stressed by placing them in a 1M hydrogen peroxide solution (in cell culture medium) for 20 sec. Cells were then washed in cell culture medium and stained with PI as well as DAPI to visualise all cell nuclei (including intact cell nuclei), and placed on a microscope slide under a coverslip and imaged.
For HEK293 suspension culture, cells were treated with a high dosage of EGTA 2 hrs prior to stress as well as during the stress. Stress was exposure to 1M hydrogen peroxide alongside untreated controls. Cells were then stained with DAPI and PI and Normarski and epifluoresence imaging was performed.

A further test deals with Hepg2s spheroids. The experiment in a line: Hepg2s spheroids made by hanging drop technique, necrotic core formation. Format: cell-based, human. The protocol: Multi-cellular spheroids were prepared using a hanging drop method. A stock solution of methylcellulose (MC) was prepared by dissolving 1.2 g of MC powder (4000 cP, Sigma-Aldrich) in 100 ml of DMEM. The solution was magnetically stirred overnight at 4° C. and subsequently centrifuged at 4,000 g for 3 hrs. HepG2s cells were re-suspended in cell medium containing 20% MC stock solution at a concentration of 20,000 cells per 50 μL spheroid. 50 μL drops were subsequently pipetted onto a non-adherent petri dish (Greiner) and, replacing the lid, the dish was turned upside-down and incubated overnight at 37° C. Multi-cellular spheroids were harvested individually with a wide bore pipette or collectively by adding 5 mL cell medium to the dish, collecting and centrifuging the suspension at 300 g for 5 min and resuspending the spheroids in cell medium. Spheroids were then cultured for 5 days in 48 well plates containing 2.5% agarose gel and 400 μl cell medium. EGTA was added at 0 and 2500 μM to both the spheroid pre-cursor solution and the cell culture medium. At day 3 and day 5 the spheroids were imaged and assessed.
Next, 3D cell culture was employed using Hepg2 cells and a standard hanging drop protocol of spheroid production. […] Necrotic cores disrupt physiology, and a challenge is vasculature formation faster than necrotic core formation. […]

“Also recorded” adds a separate entry of the source.

As to `O=C(O)CN(CCOCCOCCN(CC(=O)O)CC(=O)O)CC(=O)O` [EGTA, ethylene glycol-bis(β-aminoethyl ether)-N,N,N′,N′-tetraacetic acid], the “C. elegans death / survival following stress” value in the test on C. elegans was “death is prevented”. In addition, the “% of necrotic cells (PI stain) relative to all cells (DAPI stain)” value in test [1] is reported as “necrosis cell death is prevented; also recorded: significantly reduced”. Further, the necrotic core formation entry in the test on Hepg2s spheroids (hanging drop Hepg2s spheroids, 2500 μM EGTA or 5000 μM EGTA, 5 days) is “no necrotic core even after 5 days”; in the test on Hepg2s spheroids (hanging drop Hepg2 spheroids, 20,000 cells, EGTA at 250 and 500 mM, day 5), “no necrotic cores being visible”.
